Laboratory results taken from US20230312564A1, “AROMATIC RING-LACTAM COMPOUND, PREPARATION METHOD THEREFOR AND USE THEREOF” (SHANGHAI RINGENE BIOPHARMA CO., LTD., priority 2020, published 2023).
Read-outs that look alike come from different tables or passages of the source.

What was measured:
[1] = Liver microsomal metabolic stability, human; type: in vitro ADME; conditions: liver microsomes, 0.5 mg/mL microsomes, 1 μM compound, NADPH, read-out: Liver microsomal stability T1/2
Description: (§1) The reaction was stopped with tinidazole-containing acetonitrile at 0 min, 5 min, 10 min and 30 min, respectively. After vortexing for 10 min and centrifuging at 15,000 rmp for 10 min, 50 μL of the supernatant was injected into a 96-well plate. The metabolic stability of the compound was calculated by determining the relative reduction of the drug, calculated as half-life T1/2.

[2] = Liver microsomal metabolic stability, dog; type: in vitro ADME; conditions: liver microsomes, 0.5 mg/mL microsomes, 1 μM compound, NADPH, read-out: Liver microsomal stability T1/2
Description: as §1

[3] = Liver microsomal metabolic stability, rat; type: in vitro ADME; conditions: liver microsomes, 0.5 mg/mL microsomes, 1 μM compound, NADPH, read-out: Liver microsomal stability T1/2
Description: as §1

[4] = system: Colo-205 cells; assay: Colo-205 tumor cell proliferation, CCK-8, 72 hours; type: cell-based; conditions: for IC50: read-out: Colo-205 IC50; for cell proliferation inhibitory activity (in words): Colo-205
Description: 1. Test method: Colo-205 cells (ATCC) in logarithmic growth phase were inoculated into a 96-well culture plate at an appropriate density with 90 μL per well. After overnight culture, different concentrations of the compound were added and acted for 72 hours, and a solvent control group (negative control) was set. After the compound was acted on cells for 72 hours, the effect of the compound on cell proliferation was detected by the cell counting kit CCK-8 (Dojindo), and 10 μL of CCK-8 reagent was added to each well. After the plate was placed in a 37° C. incubator for 2 to 4 hours, a full-wavelength microplate reader SpectraMax 190 was adopted for obtaining the readings with a measured wavelength of 450 nm. […] The IC50 value was obtained by four-parameter regression with the software attached to the microplate reader.

[5] = biological target: T1, ERK1/2 kinase; assay: ERK1/2 kinase (Carna) inhibitory activity, Caliper mobility shift; type: biochemical; conditions: for IC50: read-out: ERK½ IC50
T1 construct: fused on or other part: Carna's ERK products carry a GST tag by vendor knowledge
Description: (1) Preparation of 1×Kinase buffer; (2) preparation of compound concentration gradient: the initial test concentration of the tested compound was 10 μM, which was 3-fold diluted to 10 concentrations, and a duplicate test was conducted, and then the tested compound was diluted in a 96 well plate to a 100-fold final concentration of 10 different concentrations of solution. […] Log (inhibitor) vs. response—Variable slope of the analysis software GraphPad Prism 5 was used to fit the dose-effect curve to obtain the IC50 value of each compound on the enzyme activity.
2. […] (A<10 nM, 10 nM≤B<200 nM, C≥200 nM)

[6] = In-vivo pharmacokinetic parameters in mice; design: species or system Balb-c mice
Description: Six male SPF grade SD rats or Balb-c mice (Shanghai Sipple-Bikai Laboratory Animal) were divided into two groups, and the tested compounds were prepared into appropriate solutions or suspensions; one group was administered intravenously (with a dose of 1 mg/kg), and the other group was administered orally (with a dose of 5 mg/kg). Blood samples were collected by jugular vein puncture, and each sample was collected with a volume of about 0.2 mL/time point, and heparin sodium was used for anticoagulation. The time points of blood collection were listed below: 5, 15 and 30 min […], 1, 2, 4, 6, 8 and 24 h after administration; the collected blood samples were placed on ice and centrifuged to separate plasma (centrifugation conditions: 8,000 rpm, 6 min, 2 to 8° C.), and the collected plasma was stored at −80° C. before analysis. Plasma samples were analyzed by LC-MS/MS.
The pharmacokinetic parameters such as AUC0-t, AUC0-∞, MRT0-∞, Cmax, Tmax, T1/2 and Vd of the tested compounds and their mean values and standard deviations were calculated by the pharmacokinetic calculation software WinNonlin5.2 non-compartmental model according to the plasma concentration data. In addition, the bioavailability (F) was calculated by the following formula.
For samples with concentrations below the lower limit of quantitation, while pharmacokinetic parameter calculations were performed, samples sampled before Cmax was reached should be calculated as a zero value and samples sampled after Cmax was reached should be calculated as below limit of quantitation (BLQ).

[7] = system: Colo-205 transplanted tumor; assay: Growth inhibition of nude mice Colo-205 transplanted tumor; type: in vivo; conditions: 50 mg/kg, qdx21, po
Description: The tumor tissue in the vigorous growth phase was cut into about 1.5 mm^3 and inoculated subcutaneously in the right axilla of nude mice under sterile conditions. The diameter of subcutaneous transplanted tumors in nude mice was measured with a vernier caliper, and the mice were randomly divided into groups when the average tumor volume reached about 130 mm^3. The embodiment compounds (injection water containing 1% Tween 80 were configured to a desired concentration for later use) were orally administered daily at a given dose for three consecutive weeks, and the solvent control group was administered with the same amount of solvent. During the whole test, the diameter of transplanted tumor was measured twice a week, and the mice were weighed at the same time. The calculation formula of tumor volume (TV) is expressed as TV=1/2×a×b^2, wherein a and b represent length and width, respectively. The relative tumor volume (RTV) was calculated according to the measurement results, and the calculation formula is RTV=Vt/V0, wherein V0 is the tumor volume measured when administered in separate cages (i.e., d0), and Vt is the tumor volume at the time of each measurement.

[8] = male, Balb-c, mouse, plasma, IV, 1 mg/kg
[9] = male, Balb-c, mouse, plasma, PO, 5 mg/kg
[10] = Homo sapiens, COLO 205, 72 hours, CCK-8, class symbols
[11] = Homo sapiens, COLO 205, 72 hours, CCK-8, numeric values

## Cc1cccc([C@@H](CO)NC(=O)[C@@H](C)N2Cc3ccc(-c4nc(NC5CCOCC5)ncc4Cl)cc3C2=O)c1 [Comparative compound 1, (R)-2-(6-(5-Chloro-2-((tetrahydro-2H-pyran-4-yl)amino)pyrimidin-4-yl)-1-oxoisoindolin-2-yl)-N—((S′)-2-hydroxy-1l-(in-tolyl)ethyl)propanamide, reference compound]
[1]
  half-life at 1 μM: 3 min
[2]
  half-life at 1 μM: 40 min
[3]
  half-life at 1 μM: 4 min

## Cc1cccc([C@@H](CO)NC(=O)[C@@H](C)N2Cc3ncc(-c4nc(NC5CCOCC5)ncc4Cl)cc3C2=O)c1 [Comparative compound 3, (R)-2-(3-(5-Chloro-2-((tetrahydro-2H-pyran-4-yl)amino)pyrimidin-4-yl)-5-oxo-5,7-dihydro-6H-pyrrolo[3,4-b]pyridin-6-yl)-N—((S)-2-hydroxy-1-(m-tolyl)ethyl)propanamide, reference compound]
[1]
  half-life at 1 μM: 6 min
[2]
  half-life at 1 μM: 201 min
[3]
  half-life at 1 μM: 6 min
[4]; Homo sapiens, COLO 205, 72 h
  IC50: 53.1 nM

## Cc1cccc([C@@H](CO)NC(=O)[C@@H](C)N2Cc3ccc(-c4ccnc(Nc5ccnn5C)n4)c(F)c3C2=O)c1 [Embodiment 27]
[4]; 72 hours, CCK-8, class symbols
  IC50: < 100 nM
[5]; numeric values
  IC50: 1.3 nM

## Cc1cccc([C@@H](CO)NC(=O)[C@@H](C)N2Cc3ccc(-c4nc(NC5CCOCC5)ncc4F)nc3C2=O)c1 [Embodiment 28]
[4]; 72 hours, CCK-8, class symbols
  IC50: 100 to 1000 nM
[5]; numeric values
  IC50: 3.7 nM

## Cc1cccc([C@@H](CO)NC(=O)[C@@H](C)N2Cc3ccc(-c4ccnc(NC(C)C)n4)c(F)c3C2=O)c1 [Embodiment 29]
[4]; 72 hours, CCK-8, class symbols
  IC50: 100 to 1000 nM
[5]; numeric values
  IC50: 3.6 nM

## Cc1cccc([C@@H](CO)NC(=O)[C@@H](C)N2Cc3ccc(-c4ccnc(NC5CCOCC5)n4)nc3C2=O)c1 [Embodiment 30]
[4]; 72 hours, CCK-8, class symbols
  IC50: 100 to 1000 nM
[5]; numeric values
  IC50: 6.9 nM

## Cc1cccc([C@@H](CO)NC(=O)[C@@H](C)N2Cc3ccc(-c4nc(NC5CCOCC5)ncc4F)c(F)c3C2=O)c1 [Embodiment 31, (R)-2-(7-Fluoro-6-(5-fluoro-2-((tetrahydro-2H-pyran-4-yl)amino)pyrimidin-4-yl)-1-oxoisoindolin-2-yl)-N—((S)-2-hydroxy-1-(m-tolyl)ethyl)propanamide]
[6]; PO 5 mg/kg vs IV 1 mg/kg
  F: 52%
[6]; [8]
  AUC(0-inf): 0.407 µM·h
  AUC(0-t): 0.397 µM·h
  MRT inf: 30 min
  clearance: 75 mL/min/kg
  half-life: 84 min
[6]; male, Balb-c, mouse, plasma, IV, 1 mg/kg, read-out: Vss
  Vd: 2 L/kg
[6]; [9]
  AUC(0-inf): 1.06 µM·h
  AUC(0-t): 1.05 µM·h
  Cmax: 1170 nM
  Tmax: 18 min
  half-life: 90 min
[7]
  T/C: 27.9%
[7]; D0
  Initial weight (D0): 20.1 g
[7]; D21
  Terminal weight (D21): 21.7 g
[7]; initial
  Initial tumor volume: 96 ± 21 mm^3
[7]; terminal
  Terminal tumor volume: 271 ± 128 mm^3

## Cc1cccc([C@@H](CO)NC(=O)[C@@H](C)N2Cc3ccc(-c4nc(Nc5ccnn5C)ncc4Cl)c(F)c3C2=O)c1 [Embodiment 32]
[4]; 72 hours, CCK-8, numeric values
  IC50: 98.6 nM
[5]; numeric values
  IC50: 1.4 nM

## Cc1cccc([C@@H](CN)NC(=O)[C@@H](C)N2Cc3ccc(-c4nc(NC5CCOCC5)ncc4F)c(F)c3C2=O)c1 [Embodiment 36]
[4]
  cell proliferation inhibitory activity (in words): strong cell proliferation inhibitory activity
[4]; [10]
  IC50: < 100 nM
[5]
  enzyme inhibitory activity (in words): extremely strong enzyme inhibitory activity
[5]; numeric values
  IC50: < 1 nM

## C[C@H](C(=O)N[C@H](CO)c1cccc(Cl)c1)N1Cc2ccc(-c3nc(NC4CCC(F)(F)CC4)ncc3F)c(F)c2C1=O [Embodiment 38]
[4]; [10]
  IC50: 100 to 1000 nM
[5]; class symbols
  IC50: < 10 nM

## C[C@H](C(=O)N[C@H](CO)c1cccc(Cl)c1)N1Cc2ccc(-c3nc(NC4CCC(O)C(F)C4)ncc3F)c(F)c2C1=O (stereo partly shown) [Embodiment 39]
[4]; [10]
  IC50: 100 to 1000 nM
[5]
  enzyme inhibitory activity (in words): extremely strong enzyme inhibitory activity
[5]; class symbols
  IC50: < 10 nM

## Cc1cc([C@@H](CO)NC(=O)[C@@H](C)N2Cc3ccc(-c4nc(NC5CCOCC5)ncc4F)c(F)c3C2=O)ccn1 [Embodiment 41]
[4]; [10]
  IC50: < 100 nM
[5]; numeric values
  IC50: < 1 nM

## COc1cc(F)cc([C@@H](CO)NC(=O)[C@@H](C)N2Cc3ccc(-c4nc(NC5CC(F)(F)C5)ncc4F)c(F)c3C2=O)c1 [Embodiment 43]
[4]; [10]
  IC50: < 100 nM
[5]; class symbols
  IC50: < 10 nM

## COc1cc(F)cc([C@@H](CO)NC(=O)[C@@H](C)N2Cc3ccc(-c4nc(Nc5ccnn5C)ncc4F)c(F)c3C2=O)c1 [Embodiment 45]
[4]
  cell proliferation inhibitory activity (in words): strong cell proliferation inhibitory activity
[4]; [10]
  IC50: < 100 nM
[5]
  enzyme inhibitory activity (in words): extremely strong enzyme inhibitory activity
[5]; numeric values
  IC50: < 1 nM

## C[C@H](C(=O)NCc1cccc(N(C)C)n1)N1Cc2ccc(-c3nc(NC4CCOCC4)ncc3F)c(F)c2C1=O [Embodiment 47]
[4]; [10]
  IC50: 100 to 1000 nM
[5]; class symbols
  IC50: < 10 nM

## C[C@H](C(=O)N[C@H](CO)c1cccc(Cl)c1)N1Cc2ccc(-c3nc(NC4CC[C@H](O)[C@@H](F)C4)ncc3F)c(F)c2C1=O (stereo partly shown) [Embodiment 50]
[4]; [10]
  IC50: < 100 nM
[5]; class symbols
  IC50: < 10 nM

## Cn1nccc1Nc1nccc(-c2ccn([C@H](CO)c3ccc(Cl)c(F)c3)c(=O)c2)n1 [GDC0994, reference compound]
[4]; [11]
  IC50: 165 nM
[5]; class symbols
  IC50: < 10 nM

## Cn1nccc1Nc1nccc(-c2cc3c(s2)C(C)(C)N(CCN2CCOCC2)C3=O)n1 [LY3214996, reference compound]
[4]; [11]
  IC50: 316 nM
[5]; class symbols
  IC50: < 10 nM

## (R)-2-(6-(5-Chloro-2-((tetrahydro-2H-pyran-4-yl)amino)pyrimidin-4-yl)-4-fluoro-1-oxoisoindolin-2-yl)-N—((S)-2-hydroxy-1-(m-tolyl)ethyl)propanamide [Comparative compound 4, reference compound]
[4]; 72 hours, CCK-8, class symbols
  IC50: > 1000 nM
[5]; numeric values
  IC50: 105 nM
